Test results: ChEMBL document CHEMBL5724914, “Linking interpersonal differences in gut microbiota composition and drug biotransformation activity” (2024)

Experiments:
[1] = The drug is tested on Z-021 corresponding to metagenome with ENA study accession number: PRJEB37062 and ENA sample accession number: ERS12561820 for biotransformation under anaerobic condition. The drug concentrations were measured over 9 timepoints collected between 0 and 24 hours of incubation by liquid-chromatography-coupled mass spectrometry (LC–MS); conditions: 2 µM
[2] = human gut metagenome, 24 h, 2 µM
[3] = The drug is tested on WLS-350 corresponding to human gut metagenome with ENA study accession number: PRJEB37062 and ENA sample accession number: ERS12561789 for biotransformation under anaerobic condition. The drug concentrations were measured over 9 timepoints collected between 0 and 24 hours of incubation by liquid-chromatography-coupled mass spectrometry (LC–MS); conditions: 2 µM
[4] = The drug is tested on Z-027 corresponding to metagenome with ENA study accession number: PRJEB37062 and ENA sample accession number: ERS12561826 for biotransformation under anaerobic condition. The drug concentrations were measured over 9 timepoints collected between 0 and 24 hours of incubation by liquid-chromatography-coupled mass spectrometry (LC–MS); conditions: 2 µM
[5] = The drug is tested on Z-005 corresponding to metagenome with ENA study accession number: PRJEB37062 and ENA sample accession number: ERS12561805 for biotransformation under anaerobic condition. The drug concentrations were measured over 9 timepoints collected between 0 and 24 hours of incubation by liquid-chromatography-coupled mass spectrometry (LC–MS); conditions: 2 µM
[6] = human gut metagenome, 24 h, 2 µM; remark: listed apart in the source
[7] = The drug is tested on WLS-082 corresponding to human gut metagenome with ENA study accession number: PRJEB37062 and ENA sample accession number: ERS12561751 for biotransformation under anaerobic condition. The drug concentrations were measured over 9 timepoints collected between 0 and 24 hours of incubation by liquid-chromatography-coupled mass spectrometry (LC–MS); conditions: 2 µM
[8] = The drug is tested on Z-004 corresponding to metagenome with ENA study accession number: PRJEB37062 and ENA sample accession number: ERS12561804 for biotransformation under anaerobic condition. The drug concentrations were measured over 9 timepoints collected between 0 and 24 hours of incubation by liquid-chromatography-coupled mass spectrometry (LC–MS); conditions: 2 µM
[9] = human gut metagenome, 24 h, 2 µM; remark: listed apart in the source
[10] = human gut metagenome, 24 h, 2 µM; remark: listed apart in the source
[11] = human gut metagenome, 24 h, 2 µM; remark: listed apart in the source
[12] = The drug is tested on WLS-027 corresponding to human gut metagenome with ENA study accession number: PRJEB37062 and ENA sample accession number: ERS12561744 for biotransformation under anaerobic condition. The drug concentrations were measured over 9 timepoints collected between 0 and 24 hours of incubation by liquid-chromatography-coupled mass spectrometry (LC–MS); conditions: 2 µM
[13] = human gut metagenome, 24 h, 2 µM; remark: listed apart in the source
[14] = The drug is tested on WLS-007 corresponding to human gut metagenome with ENA study accession number: PRJEB37062 and ENA sample accession number: ERS12561742 for biotransformation under anaerobic condition. The drug concentrations were measured over 9 timepoints collected between 0 and 24 hours of incubation by liquid-chromatography-coupled mass spectrometry (LC–MS); conditions: 2 µM
[15] = human gut metagenome, 24 h, 2 µM; remark: listed apart in the source
[16] = human gut metagenome, 24 h, 2 µM; remark: listed apart in the source
[17] = human gut metagenome, 24 h, 2 µM; remark: listed apart in the source
[18] = The drug is tested on Z-016 corresponding to mouse gut metagenome with ENA study accession number: PRJEB37062 and ENA sample accession number: ERS12561815 for biotransformation under anaerobic condition. The drug concentrations were measured over 9 timepoints collected between 0 and 24 hours of incubation by liquid-chromatography-coupled mass spectrometry (LC–MS); conditions: 2 µM
[19] = human gut metagenome, 24 h, 2 µM; remark: listed apart in the source
[20] = human gut metagenome, 24 h, 2 µM; remark: listed apart in the source
Note: call rule not given here.

SMILES	Bacterial Biotransformation [1]	Bacterial Biotransformation [2]	Bacterial Biotransformation [3]	Bacterial Biotransformation [4]	Bacterial Biotransformation [5]	Bacterial Biotransformation [6]	Bacterial Biotransformation [7]	Bacterial Biotransformation [8]	Bacterial Biotransformation [9]	Bacterial Biotransformation [10]	Bacterial Biotransformation [11]	Bacterial Biotransformation [12]	Bacterial Biotransformation [13]	Bacterial Biotransformation [14]	Bacterial Biotransformation [15]	Bacterial Biotransformation [16]	Bacterial Biotransformation [17]	Bacterial Biotransformation [18]	Bacterial Biotransformation [19]	Bacterial Biotransformation [20]
CN(C)C(=O)Oc1cccc([N+](C)(C)C)c1.[Br-] [NEOSTIGMINE BROMIDE]	Compound NOT metabolized	Compound NOT metabolized	Compound NOT metabolized	Compound NOT metabolized	Compound NOT metabolized	Compound NOT metabolized	Compound NOT metabolized	Compound NOT metabolized	Compound NOT metabolized	Compound NOT metabolized	Compound NOT metabolized	Compound NOT metabolized	Compound NOT metabolized	Compound NOT metabolized	Compound NOT metabolized	Compound NOT metabolized	Compound NOT metabolized	Compound NOT metabolized	Compound NOT metabolized	Compound NOT metabolized
Cc1ccccc1C(OCCN(C)C)c1ccccc1.O=C(O)CC(O)(CC(=O)O)C(=O)O (stereo not given) [ORPHENADRINE CITRATE]	Compound metabolized	Compound NOT metabolized	Compound NOT metabolized	Compound NOT metabolized	Compound NOT metabolized	Compound NOT metabolized	Compound NOT metabolized	Compound metabolized	Compound metabolized	Compound NOT metabolized	Compound metabolized	Compound NOT metabolized	Compound metabolized	Compound metabolized	Compound metabolized	Compound NOT metabolized	Compound NOT metabolized	Compound metabolized	Compound NOT metabolized	Compound metabolized
CC(=O)CCCCn1c(=O)c2c(ncn2C)n(C)c1=O [PENTOXIFYLLINE]	Compound NOT metabolized	Compound NOT metabolized	Compound NOT metabolized	Compound NOT metabolized	Compound NOT metabolized	Compound NOT metabolized	Compound NOT metabolized	Compound NOT metabolized	Compound metabolized	Compound NOT metabolized	Compound NOT metabolized	Compound NOT metabolized	Compound metabolized	Compound NOT metabolized	Compound NOT metabolized	Compound NOT metabolized	Compound NOT metabolized	Compound NOT metabolized	Compound NOT metabolized	Compound metabolized
CCCN1C[C@H](CSC)C[C@@H]2c3cccc4[nH]cc(c34)C[C@H]21.CS(=O)(=O)O [PERGOLIDE MESYLATE]	Compound metabolized	Compound NOT metabolized	Compound NOT metabolized	Compound NOT metabolized	Compound NOT metabolized	Compound NOT metabolized	Compound NOT metabolized	Compound NOT metabolized	Compound NOT metabolized	Compound NOT metabolized	Compound NOT metabolized	Compound NOT metabolized	Compound NOT metabolized	Compound NOT metabolized	Compound NOT metabolized	Compound NOT metabolized	Compound NOT metabolized	Compound NOT metabolized	Compound NOT metabolized	Compound NOT metabolized
CC(C)(C)N.CCC[C@H](N[C@@H](C)C(=O)N1[C@H](C(=O)O)C[C@@H]2CCCC[C@@H]21)C(=O)OCC [PERINDOPRIL ERBUMINE]	Compound NOT metabolized	Compound metabolized	Compound metabolized	Compound NOT metabolized	Compound metabolized	Compound NOT metabolized	Compound metabolized	Compound metabolized	Compound metabolized	Compound metabolized	Compound metabolized	Compound metabolized	Compound metabolized	Compound metabolized	Compound metabolized	Compound NOT metabolized	Compound metabolized	Compound NOT metabolized	Compound metabolized	Compound metabolized
C=C[C@H]1CN2CC[C@H]1C[C@H]2[C@H](O)c1ccnc2ccc(OC)cc12.C=C[C@H]1CN2CC[C@H]1C[C@H]2[C@H](O)c1ccnc2ccc(OC)cc12.O.O.O=S(=O)(O)O [QUININE SULFATE]	Compound NOT metabolized	Compound NOT metabolized	Compound NOT metabolized	Compound NOT metabolized	Compound NOT metabolized	Compound NOT metabolized	Compound NOT metabolized	Compound NOT metabolized	Compound NOT metabolized	Compound NOT metabolized	Compound NOT metabolized	Compound NOT metabolized	Compound metabolized	Compound NOT metabolized	Compound NOT metabolized	Compound NOT metabolized	Compound metabolized	Compound NOT metabolized	Compound NOT metabolized	Compound metabolized
